In patent publication US20260248879A1, “METHODS OF USING A GCG/GLP1 CO-AGONIST FOR THERAPY” (ELI LILLY AND COMPANY, priority 2022, published 2026):

Test system: individuals with obesity
Experiment: Example 2 multiple ascending dose study in obesity: body weight, waist circumference
Assay type: in vivo, human
From the text: This study is designed to evaluate the safety, tolerability, PD and PK of dose to higher doses of Compound 1 in individuals with obesity. The Multiple Ascending Dose (MAD) study is a randomized, investigator- and participant-blind, placebo-controlled, multiple-ascending dose, single- or multi-site study conducted in individuals with obesity (i.e., females or males aged 18-70 years, inclusive, a BMI in the range of 27 kg/m^2 to 50 kg/m^2). Participants should have stable body weight for at least 3 months prior to the initiation of the study. Dose of Compound 1 is assessed with weekly dosing over 20 weeks in 2 cohorts. Each cohort comprises 12 patients-nine patients are administered Compound 1 and three patients are administered placebo. The dose for Cohort 1 is as follows: • 1.5 mg Compound 1 for 2 weeks; • 3.0 mg Compound 1 for 2 weeks; • 6.0 mg Compound 1 for 4 weeks; • 8.0 mg Compound 1 for 4 weeks; • 12.0 mg Compound 1 for 4 weeks; and • 16.0 mg Compound 1 for 4 weeks. The dose for Cohort 2 is as follows: • 2.0 mg Compound 1 for 3 weeks; • 4.0 mg Compound 1 for 3 weeks; • 6.0 mg Compound 1 for 3 weeks; • 8.0 mg Compound 1 for 3 weeks; • 10.0 mg Compound 1 for 2 weeks; • 13.0 mg Compound 1 for 2 weeks, and • 16.0 mg Compound 1 for 4 weeks. Body weight and waist circumference are measured at frequent intervals across dose from Day 1 through Day 138 and for an extended follow-up period after the conclusion of dosing. Mean absolute and percent change in body weight are calculated for Compound 1 and for placebo arms within each cohort and compared to baseline at multiple time points from Day 1 through Day 138 and throughout the extended follow-up period after the conclusion of dosing. Mean absolute and percent change in waist circumference are calculated for Compound 1 and for placebo arms within each cohort and compared to baseline at multiple time points from Day 1 through Day 138 and throughout the extended follow-up period after the conclusion of dosing. While the weight loss described in Example 1 is in a T2D patient population, greater weight loss is typical in an obesity patient population. A multiplier of 1.6-1.8 may be applied to percent weight loss moving from the T2D population to an obesity population.

Compound: CC(C)C[C@H](NC(=O)[C@H](CC(C)C)NC(=O)[C@H](Cc1c[nH]c2ccccc12)NC(=O)[C@H](CCC(=O)O)NC(=O)[C@@H](NC(=O)[C@H](Cc1ccccc1)NC(=O)[C@H](CCC(=O)O)NC(=O)[C@H](CCCCNC(=O)COCCOCCNC(=O)COCCOCCNC(=O)CC[C@H](NC(=O)CCCCCCCCCCCCCCCCCCC(=O)O)C(=O)O)NC(=O)[C@H](C)NC(=O)[C@H](CCCCN)NC(=O)[C@H](CCCCN)NC(=O)[C@H](CCC(=O)O)NC(=O)[C@H](CC(=O)O)NC(=O)[C@H](CC(C)C)NC(=O)[C@H](Cc1ccc(O)cc1)NC(=O)[C@H](CCCCN)NC(=O)[C@H](CO)NC(=O)[C@H](Cc1ccc(O)cc1)NC(=O)[C@H](CC(=O)O)NC(=O)[C@H](CO)NC(=O)[C@@H](NC(=O)[C@H](Cc1ccccc1)NC(=O)[C@@H](NC(=O)CNC(=O)[C@H](CCC(N)=O)NC(=O)C(C)(C)NC(=O)[C@@H](N)Cc1c[nH]cn1)[C@@H](C)O)[C@@H](C)O)C(C)C)C(=O)N[C@@H](CCC(=O)O)C(=O)NCC(=O)NCC(=O)N1CCC[C@H]1C(=O)N[C@@H](CO)C(=O)N[C@@H](CO)C(=O)NCC(N)=O [Compound 1]
- mean waist circumference change (Ex. 2 Cohort 1, Day 85/12 weeks (after 4 weeks of 8 mg), placebo +0.04%): −5.2%
- mean percent change from baseline in body weight (Ex. 2 Cohort 1, Day 113/16 weeks, after 4 weeks of 12 mg, placebo +0.7%): −15.4%
- mean waist circumference change (Ex. 2 Cohort 1, Day 113/16 weeks, after 4 weeks of 12 mg, placebo +1.3%): −6.3%
- mean waist circumference change (Ex. 2 Cohort 1, Day 138/20 weeks, after 4 weeks of 16 mg, placebo +0.4%): −11.5%
- mean waist circumference change (Ex. 2 Cohort 2, Day 85/12 weeks (after 8 mg), placebo +0.04%): −7.6%
- mean percent change from baseline in body weight (Ex. 2 Cohort 2, Day 85/12 weeks (after 8 mg), placebo +0.2%): −11.7%
- mean percent change from baseline in body weight (Ex. 2 Cohort 2, Day 99/14 weeks, after 2 weeks of 10 mg, placebo +0.07%): −13.4%
- mean waist circumference change (Ex. 2 Cohort 2, Day 99/14 weeks, after 2 weeks of 10 mg, placebo +1.0%): −6.8%
- mean percent change from baseline in body weight (Ex. 2 Cohort 2, Day 113/16 weeks, after 2 weeks of 13 mg, placebo +0.7%): −16.2%
- mean waist circumference change (Ex. 2 Cohort 2, Day 113/16 weeks, after 2 weeks of 13 mg, placebo +1.3%): −12.6%
- mean waist circumference change (Ex. 2 Cohort 2, Day 138/20 weeks, after 4 weeks of 16 mg, placebo +0.4%): −16.6%
